Measured values reported in patent publication US20260068882A1, “ARTHROPOD CONTROLLING COMPOSITION” (Firmenich SA, priority 2019, published 2026).
Where two headings read alike, the source gives them in different places.

Assays:
Aedes aegypti [1] = assay: In vitro K&D (Klun & Debboun) assay, mosquitoes biting through treated cloth over membrane-blood reservoir; type: in vivo
Procedure: Controlling efficacy was tested against the yellow fever mosquito, A. aegypti Rockefeller strain.
Observations of controlling efficacy were made on host-seeking females of uniform age, 5 to 10 days post-eclosion from pupae. Tested hungry females had access to 10% sugar solution but were not blood-fed.
The controlling efficacy in vitro was measured using the Klun & Debboun (K&D) assay test module [Klun J A, Kramer M, Debboun M. A new in vitro bioassay system for discovery of novel human-use mosquito controlling compounds. J Am Mosq Control Assoc. 2005; 21:64-70], which is an adaptation of the K&D module [Klun J A, Debboun M. A new module for quantitative evaluation of controlling efficacy using human subjects. J Med Entomol. 2000; 37:177-81.], initially developed and used for quantitative measurement of the efficacy of mosquito controlling compounds on human subjects.
In the in vitro assay the module is coupled with a membrane-blood reservoir, consisting of a unit with six wells that are filled with 7 mL defibrinated pig blood maintained at a constant temperature of 38° C. and covered with a bovine collagen film (Devro plc, Edicol-MX400 CLR 100M REEL) as the membrane. Over the membrane a piece of cotton cloth (Baptist Roh, 100% cotton, weight: 69.0 g/m^2, thread density: warp and woof 26.5×26.5 thread/cm, Modessa Basel) was placed after being treated with 80 μL of the tested stimuli.
The K&D unit, containing five mosquitoes in each cell was finally placed on top of the treated cloth. Then the numbers of mosquitoes biting in each cell within a 3-min exposure were recorded. This procedure was repeated until 6 replicate exposures and observations (i.e. 30 mosquitoes) were made.

Aedes aegypti [2] = assay: In vivo K&D assay on treated skin of human study participants
Source text: For the K&D in vivo test [Klun J A, Debboun M. A new module for quantitative evaluation of controlling efficacy using human subjects. J Med Entomol. 2000; 37:177-81.], 3 study participants, 2 females and 1 male, showing low or no skin reactions against mosquito bites were recruited at the Swiss Tropical and Public Health Institute (Swiss TPH). […] The study was approved by the Ethics Commission of Northwest and Central Switzerland (Study no. PB_2017-00436-220/11) and all study participants signed an informed consent form. To avoid unwanted bias the participants were asked to avoid alcohol and products such as perfume, eau de cologne and lotions for at least 12 hours before and during the experiments. During the experiments the participants were also asked to avoid rubbing, touching or wetting the arthropod controlling compound-treated area as well as any activity that might lead to increased perspiration.
In the in vivo assay, a template was used to delineate 4 cm×5 cm areas on the skin that correspond to each of the six cell openings (3 cm×4 cm) on the bottom of the K&D module. Five areas were treated with the different tested stimuli. The module, with five host-seeking, 5- to 10-day-old mosquitoes in each cell, was then positioned over the treated skin area. The number of mosquitoes blood feeding within a 2-minute exposure was recorded. This procedure was repeated until six replicate exposures and observations (i.e. 30 mosquitoes) were made for the three study participants.

Ixodes ricinus = assay: In vitro Warm Plate Assay for ticks; type: in vivo
How it was run: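 Repellency against last-stage Ixodes ricinus nymphs in an in vitro warm plate assay, compounds diluted in ethanol at 0.4 and 10 mg/mL, 0.0016% to 1%, or 20% (w/w). Ticks walking down or falling from the treated plate scored as affected, walking up as unaffected; groups of 12 ticks, n=2-5.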

Cc1ccc2c(c1)CC(C)(CO)C2 (stereo not shown) [ingredient #2, (2,5-dimethyl-2,3-dihydro-1H-inden-2yl)methanol]
% repulsion (Aedes aegypti [1]; 0.0008% in ethanol): 21.5%
% repulsion (Aedes aegypti [1]; 0.004% in ethanol): 25.3%
% repulsion (Aedes aegypti [1]; 0.02% in ethanol): 33.8%
% repulsion (Aedes aegypti [1]; 0.1% in ethanol): 57.1%
% repulsion (Aedes aegypti [1]; 0.5% in ethanol): 84.6%
% repulsion (Aedes aegypti [1]; 2.5% in ethanol): 92.3%
concentration from which a significant repellent effect is shown (Aedes aegypti [1]; on its own, in ethanol): ≥ 0.1%
% repulsion (Aedes aegypti [2]; 0.02% in ethanol on human skin): 23.3%
% repulsion (Aedes aegypti [2]; 0.1% in ethanol on human skin): 27.8%
% repulsion (Aedes aegypti [2]; 0.5% in ethanol on human skin): 54.4%
% repulsion (Aedes aegypti [2]; 2.5% in ethanol on human skin): 82.2%
% repulsion (Aedes aegypti [2]; 10% in ethanol on human skin): 93.3%
concentration from which a significant repellent effect is shown (Aedes aegypti [2]; on its own, in ethanol): ≥ 0.5%
percentage of ticks being affected (Ixodes ricinus; 0.00032% (Table 9)): 0%
MEAN % affected (ticks) (Ixodes ricinus; 0.4 mg/mL in ethanol (Table 5)): 21%
percentage of ticks being affected (Ixodes ricinus; 0.00071% (Table 9)): 15%
percentage of ticks being affected (Ixodes ricinus; 0.0016% (Table 9)): 17%
percentage of ticks being affected (Ixodes ricinus; 0.00357% (Table 9)): 0%
percentage of ticks being affected (Ixodes ricinus; 0.0053% (Table 9)): 15%
percentage of ticks being affected (Ixodes ricinus; 0.008% (Table 9)): 0%
MEAN % affected (ticks) (Ixodes ricinus; 10 mg/mL in ethanol (Table 5)): 92%
percentage of ticks being affected (Ixodes ricinus; 0.0119% (Table 9)): 8%
percentage of ticks being affected (Ixodes ricinus; 0.0178% (Table 9)): 17%
percentage of ticks being affected (Ixodes ricinus; 0.0267% (Table 9)): 38%
percentage of ticks being affected (Ixodes ricinus; 0.04% (Table 9)): 0%
percentage of ticks being affected (Ixodes ricinus; 0.0598% (Table 9)): 31%
percentage of ticks being affected (Ixodes ricinus; 0.089% (Table 9)): 29%
percentage of ticks being affected (Ixodes ricinus; 0.2% (Table 9)): 85%
percentage of ticks being affected (Ixodes ricinus; 0.447% (Table 9)): 100%
ticks affected / not affected over 12 (in words) (Ixodes ricinus; 1%): only one tick over 12 was not affected
percentage of ticks being affected (Ixodes ricinus; 1% (Table 9)): 71%
percentage of ticks affected overtime (Ixodes ricinus; 20% (w/w) in ethanol, 0.25 h post-application): 100%
percentage of ticks affected overtime (Ixodes ricinus; 20% (w/w) in ethanol, 0.5 h post-application): 83%
percentage of ticks affected overtime (Ixodes ricinus; 20% (w/w) in ethanol, 1 h post-application): 100%
percentage of ticks affected overtime (Ixodes ricinus; 20% (w/w) in ethanol, 2 h post-application): 100%
percentage of ticks affected overtime (Ixodes ricinus; 20% (w/w) in ethanol, 4 h post-application): 0%
percentage of ticks affected overtime (Ixodes ricinus; 20% (w/w) in ethanol, 6 h post-application): 8%
ticks' repellency overtime (in words) (Ixodes ricinus; 20% (w/w) in ethanol, Table 14): better ticks' repellency than the known repellent
pest or weed control at 0.0016 % (Ixodes ricinus; Ixodes ricinus, 0.0016% (Table 11), read-out: percentage of ticks affected on the Warm Plate): 8%
pest or weed control at 0.0016 % (Ixodes ricinus; Ixodes ricinus, 0.0016% in ethanol (Table 12), read-out: percentage of ticks affected on the Warm Plate): 17%
pest or weed control at 0.0053 % (Ixodes ricinus; Ixodes ricinus, 0.0053% in ethanol (Table 12), read-out: percentage of ticks affected on the Warm Plate): 15%
pest or weed control at 0.008 % (Ixodes ricinus; Ixodes ricinus, 0.008% in ethanol (Table 12), read-out: percentage of ticks affected on the Warm Plate): 0%
pest or weed control at 0.0119 % (Ixodes ricinus; Ixodes ricinus, 0.0119% in ethanol (Table 12), read-out: percentage of ticks affected on the Warm Plate): 8%
pest or weed control at 0.0178 % (Ixodes ricinus; Ixodes ricinus, 0.0178% in ethanol (Table 12), read-out: percentage of ticks affected on the Warm Plate): 17%
pest or weed control at 0.0267 % (Ixodes ricinus; Ixodes ricinus, 0.0267% in ethanol (Table 12), read-out: percentage of ticks affected on the Warm Plate): 38%
pest or weed control at 0.04 % (Ixodes ricinus; Ixodes ricinus, 0.04% (Table 11), read-out: percentage of ticks affected on the Warm Plate): 0%
pest or weed control at 0.04 % (Ixodes ricinus; Ixodes ricinus, 0.04% in ethanol (Table 12), read-out: percentage of ticks affected on the Warm Plate): 0%
pest or weed control at 0.0598 % (Ixodes ricinus; Ixodes ricinus, 0.0598% in ethanol (Table 12), read-out: percentage of ticks affected on the Warm Plate): 31%
pest or weed control at 0.089 % (Ixodes ricinus; Ixodes ricinus, 0.089% in ethanol (Table 12), read-out: percentage of ticks affected on the Warm Plate): 29%
pest or weed control at 0.2 % (Ixodes ricinus; Ixodes ricinus, 0.2% in ethanol (Table 12), read-out: percentage of ticks affected on the Warm Plate): 85%
pest or weed control at 0.447 % (Ixodes ricinus; Ixodes ricinus, 0.447% in ethanol (Table 12), read-out: percentage of ticks affected on the Warm Plate): 100%
pest or weed control at 1 % (Ixodes ricinus; Ixodes ricinus, 1% (Table 11), read-out: percentage of ticks affected on the Warm Plate): 92%
pest or weed control at 1 % (Ixodes ricinus; Ixodes ricinus, 1% in ethanol (Table 12), read-out: percentage of ticks affected on the Warm Plate): 71%
threshold concentration to be efficient to repel the ticks (Ixodes ricinus; Table 9): above 0.2%
ticks affected (Ixodes ricinus; dose of 0.89%): 29%
